Experimental findings from patent US9062051B2, “Compounds and pharmaceutical compositions thereof for the treatment of proliferative disorders” (GALAPAGOS NV, priority 2014, dated 2015) are described below.

Bounds are passed on as bounds.

The target of one data set is T1, EphA2 (UniProt Ref: P29317) (Homo sapiens, UniProt P29317).
T1 construct: purchased Reaction Biology
The experiment in a line: EphA2 assay (Reaction Biology HotSpot radioactive kinase assay). It is filed as biochemical. The following applies: ATP 10 μM; read-out: EphA2 potency IC50. Put shortly: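 Radiometric HotSpot assay measuring ^33P incorporation from [^33P]-γ-ATP into poly[Glu:Tyr] (4:1) (0.2 mg/mL) with 10 μM ATP. IC50 from serial 1/3 dilutions starting at 10 or 3 μM.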

The target of a further data set is T2, Recombinant EphB2 (Homo sapiens, UniProt P29323).
T2 construct: purchased Carna 08-129
T2 sequence (P29323 19-986 isoform P29323-2 limits assumed): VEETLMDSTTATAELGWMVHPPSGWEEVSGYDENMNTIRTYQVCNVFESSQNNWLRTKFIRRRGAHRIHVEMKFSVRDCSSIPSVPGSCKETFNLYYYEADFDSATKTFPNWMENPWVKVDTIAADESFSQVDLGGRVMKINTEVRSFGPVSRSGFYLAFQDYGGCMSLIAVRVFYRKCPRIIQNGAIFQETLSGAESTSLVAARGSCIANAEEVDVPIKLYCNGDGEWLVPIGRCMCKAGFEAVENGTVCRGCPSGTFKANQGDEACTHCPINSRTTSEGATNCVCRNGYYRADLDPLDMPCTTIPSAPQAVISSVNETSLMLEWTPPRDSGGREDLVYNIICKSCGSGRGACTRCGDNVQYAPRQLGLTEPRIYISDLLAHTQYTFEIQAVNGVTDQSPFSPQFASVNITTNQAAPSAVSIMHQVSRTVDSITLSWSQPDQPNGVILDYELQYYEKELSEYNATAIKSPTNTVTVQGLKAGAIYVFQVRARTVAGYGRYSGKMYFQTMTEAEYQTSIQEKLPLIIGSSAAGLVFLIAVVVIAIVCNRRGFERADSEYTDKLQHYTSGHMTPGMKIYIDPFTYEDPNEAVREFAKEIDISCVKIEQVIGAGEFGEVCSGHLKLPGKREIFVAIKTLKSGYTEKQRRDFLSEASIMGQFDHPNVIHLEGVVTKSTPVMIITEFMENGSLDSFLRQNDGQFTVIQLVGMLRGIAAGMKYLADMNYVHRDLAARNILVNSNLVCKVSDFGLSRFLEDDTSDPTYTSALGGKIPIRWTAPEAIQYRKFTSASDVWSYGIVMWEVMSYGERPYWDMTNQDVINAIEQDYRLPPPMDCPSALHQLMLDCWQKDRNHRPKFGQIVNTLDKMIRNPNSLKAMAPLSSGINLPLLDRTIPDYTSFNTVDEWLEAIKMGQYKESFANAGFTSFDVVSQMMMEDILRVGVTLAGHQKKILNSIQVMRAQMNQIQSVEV
The experiment in a line: EphB2 assay (33P incorporation into poly GT, filter plate). In kind it is biochemical. The following applies: read-out: EphB2 potency IC50.

The nature of data set [1]: Pharmacokinetics in rats (exposure, AUC). In kind it is in vivo, male Sprague Dawley rats. The following applies: male, Sprague Dawley, rat, plasma, po. As to the method:
This study is performed with 6 naïve male Sprague Dawley rats (180-200 g, 6-8 weeks old). Rats are obtained from Janvier, Le Genest St Isle, France.
A controlled environment is maintained in the room with optimal conditions of approximately 15 air changes per hour, a temperature of 22±2 C, a relative humidity of 30-70% and a 12 hour light/dark cycle
Pelleted diet for rodents (UAR A04C-10) is used and is provided ad libitum. Before p.o. dosing, the animals are deprived of food for at least 12 hours before compound administration and 4 hours after administration. All animals had free access to tap water.
Two days before the dosing day, the implantation of a catheter in the jugular vein is done under gaseous anaesthesia with isoflurane.
Rats are dosed intravenously with test compound via a bolus in the tail vein with a dose level of 1 mg/kg. […]
The i.v. bolus and the oral administration are given a dose volume of 5 mL/kg.
From all animals approximately 200 μL blood samples are collected via the catheter and placed into tubes containing Li-heparin as anticoagulant. Blood samples are collected at the various time points (i.v.: 0.05, 0.25, 0.5, 1, 3, 5, 8 and 24 hours after dosing; p.o.: 0.25, 0.5, 1, 3, 5, 8 and 24 hours after dosing).
Blood is kept on ice. Within 1 hour after sampling, blood is centrifuged at 5,000 rpm for 10 min at 4° C. Immediately after centrifugation, the resulting plasma samples are collected into polypropylene tubes and are kept frozen at −20° C. pending bioanalysis.
Plasma samples are assayed by LC-MS/MS. Plasma proteins are precipitated with an excess of methanol containing the internal standard and the corresponding supernatant is injected on a C18 column. Analytes are eluted out the HPLC system by increasing the percentage of the organic mobile phase. An API4000 mass spectrometer (AB Sciex™) is used for the detection and quantification.
Pharmacokinetic parameters are calculated by non-compartmental analysis using WinNonlin® software (Pharsight, version 5.2).

T1 sequence (P29317 24-976): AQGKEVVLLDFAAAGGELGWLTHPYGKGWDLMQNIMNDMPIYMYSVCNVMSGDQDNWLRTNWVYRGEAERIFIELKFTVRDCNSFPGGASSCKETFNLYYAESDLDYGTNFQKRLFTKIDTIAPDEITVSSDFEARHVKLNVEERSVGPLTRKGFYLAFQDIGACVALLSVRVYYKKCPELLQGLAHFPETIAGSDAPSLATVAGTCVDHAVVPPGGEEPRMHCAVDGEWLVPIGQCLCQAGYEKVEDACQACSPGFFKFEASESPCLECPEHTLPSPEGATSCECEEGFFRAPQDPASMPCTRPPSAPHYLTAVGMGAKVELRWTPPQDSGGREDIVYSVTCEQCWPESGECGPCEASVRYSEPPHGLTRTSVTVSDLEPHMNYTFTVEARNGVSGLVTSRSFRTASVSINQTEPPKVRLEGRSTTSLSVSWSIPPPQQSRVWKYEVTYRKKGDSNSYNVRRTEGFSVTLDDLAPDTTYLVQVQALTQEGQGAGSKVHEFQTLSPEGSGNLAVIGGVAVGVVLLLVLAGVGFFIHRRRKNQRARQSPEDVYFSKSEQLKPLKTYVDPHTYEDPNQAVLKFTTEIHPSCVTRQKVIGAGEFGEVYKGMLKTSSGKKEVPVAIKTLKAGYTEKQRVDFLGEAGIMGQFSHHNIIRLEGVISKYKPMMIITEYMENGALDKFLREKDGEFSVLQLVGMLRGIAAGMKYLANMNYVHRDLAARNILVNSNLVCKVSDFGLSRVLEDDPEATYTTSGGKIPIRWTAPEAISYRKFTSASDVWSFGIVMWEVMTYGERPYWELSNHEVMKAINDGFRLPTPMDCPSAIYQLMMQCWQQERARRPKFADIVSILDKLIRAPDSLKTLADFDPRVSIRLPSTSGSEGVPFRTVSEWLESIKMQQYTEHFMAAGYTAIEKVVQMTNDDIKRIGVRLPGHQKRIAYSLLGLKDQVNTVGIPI

As to `Cc1ccc(NC(=O)c2cccc(C(F)(F)F)c2)cc1-c1ccc2c(C(C)O)n[nH]c2n1` (centres unmarked) [Compound 35, N-{3-[3-(1-Hydroxy-ethyl)-1H-pyrazolo[3,4-b]pyridin-6-yl]-4-methyl-phenyl}-3-trifluoromethyl-benzamide], the IC50 lay within 25 to 50 nM at EphA2 and 50 to 100 nM on Recombinant EphB2. The compound also gave an AUC in data set [1] (5 mg/kg) of 3570 ng·h/mL.

As for `CCc1n[nH]c2nc(-c3cc(NC(=O)c4cc(C)cc(C)c4)cnc3C)ccc12` [Compound 50, N-[5-(3-Ethyl-1H-pyrazolo[3,4-b]pyridin-6-yl)-6-methyl-pyridin-3-yl]-3,5-dimethyl-benzamide], the IC50 is 50 to 100 nM at EphA2 and above 100 nM on Recombinant EphB2. The same compound gave an AUC in data set [1] (5 mg/kg) of 1270 ng·h/mL.

On to `Cc1ccc(NC(=O)c2cccc(C(F)(F)F)c2)cc1-c1ccc2c([C@H](C)O)n[nH]c2n1` [Compound 55, N-{3-[3-((S)-1-Hydroxy-ethyl)-1H-pyrazolo[3,4-b]pyridin-6-yl]-4-methyl-phenyl}-3-trifluoromethyl-benzamide], for which the 50% inhibitory concentration (IC50) on EphA2 and on Recombinant EphB2 was 0.01 to 25 nM throughout. Further, the figures for the AUC in data set [1] (3 mg/kg), in data set [1] (5 mg/kg) and in data set [1] (30 mg/kg) were 1060 ng·h/mL, 965 ng·h/mL and 13600 ng·h/mL, respectively.
